Assays:
[1] = stability / shelf-life; assay type: physicochemical
[2] = bioavailability (share of consumed substance entering the bloodstream); assay type: in vivo; details: mixed with an effective amount of a hydrogenated substance such as Erythritol
Method: For use as an additive 50 that accomplishes the various objectives and which provides the aspects of the present invention, the present inventor solved several problems with regard to use of Dihydromyricetin 14a. One such problem is that Dihydromyricetin 14a, on its own, has a solubility of approximately 0.2 mg per ml of fluid, which is very low. Because the solubility of Dihydromyricetin 14a is so low, it cannot be effectively utilized as a medicine or supplement, despite the well known benefits of this flavonoid 14 for people (as well as certain animals). Another issue with Dihydromyricetin 14a is that, on its own, it has a bioavailability of approximately four percent, meaning that only about four percent of consumed Dihydromyricetin 14a enters a person's bloodstream and stays long enough to be biologically effective for product user 56. […] Mixing an effective amount of one or more solvents 60, such as a bicarbonate substance 60a or an alcohol solvent 60b, increases the solubility of Dihydromyricetin 14a from approximately 0.2 mg per ml of fluid to approximately 114 mg per ml of fluid.

[3] = on its own; share of consumed Dihydromyricetin that enters a person's bloodstream; cited from earlier work

stability ([1]; on its own, light sensitivity and other shelf-life limitations): poor stability | bioavailability of Dihydromyricetin [2]: greatly improves the bioavailability
SMILES: O=C1c2c(O)cc(O)cc2O[C@H](c2cc(O)c(O)c(O)c2)[C@H]1O [Dihydromyricetin 14a, Dihydromyricetin]
shelf-life of Dihydromyricetin ([1]; mixed with an effective amount of Erythritol and/or other hydrogenated substances): extends the Dihydromyricetin 14a shelf-life | bioavailability [3]: approximately four
